These results are taken from paper PMC8611796, “Defining natural factors that stimulate and inhibit cellulose:xyloglucan hetero‐transglucosylation” (The Plant Journal, 2021).

Holding throughout (type): biochemical
In assay [1] the target is T1, EfHTG (Equisetum fluviatile hetero-trans-beta-glucanase) (Equisetum fluviatile, UniProt A0A0K2WA62).
T1 construct: gene HTG; secreted by Pichia pastoris SMD1168H; culture filtrate used; made as in Simmons et al. 2015
T1 sequence (A0A0K2WA62 22-280): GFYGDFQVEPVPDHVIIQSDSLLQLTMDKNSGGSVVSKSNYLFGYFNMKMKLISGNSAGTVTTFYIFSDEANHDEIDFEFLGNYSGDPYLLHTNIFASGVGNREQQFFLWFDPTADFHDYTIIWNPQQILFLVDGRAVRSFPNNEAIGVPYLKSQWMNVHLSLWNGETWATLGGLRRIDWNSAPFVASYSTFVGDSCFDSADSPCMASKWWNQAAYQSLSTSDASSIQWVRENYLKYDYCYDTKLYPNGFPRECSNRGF
Kind of assay: radiochemical CXE and MXE assay, [3H]XXXGol incorporation. The settings on record: cellulose or MLG donor, succinate pH 5.5, 20 C, 24 h.

Assay [2] concerns the target T1, EfHTG (Equisetum fluviatile hetero-trans-beta-glucanase). Kind of assay: radiochemical CXE assay, [3H]XXXGol incorporation. Conditions: read-out: % inhibition at 0.3 mM.
The target is the same in assay [3]. Kind of assay: radiochemical transglucosylase assay (XET, MXE, CXE). The settings on record: acceptor substrate; labelled compound; xyloglucan, MLG or cellulose donor; pH 5.5.

Regarding `OC[C@H]1O[C@@H](O[C@H]2[C@H](O)[C@@H](O)C(O)O[C@@H]2CO)[C@H](O)[C@@H](O)[C@@H]1O` (stereo partly shown) [cellobiose], the “% inhibition” value in assay [1] (0.01-80 mM inhibitor, [3H]XXXGol or [3H]XyG acceptor) was “Cellobiose inhibited EfHTG’s CXE activity equally whether [^3H]XXXGol or polymeric [^3H]XyG was the acceptor”.

Consider `OC[C@H]1O[C@@H](O[C@H]2[C@H](O)[C@@H](O)[C@H](O[C@H]3[C@H](O)[C@@H](O)[C@H](O[C@H]4[C@H](O)[C@@H](O)[C@H](O[C@H]5[C@H](O)[C@@H](O)[C@H](O[C@H]6[C@H](O)[C@@H](O)C(O)O[C@@H]6CO)O[C@@H]5CO)O[C@@H]4CO)O[C@@H]3CO)O[C@@H]2CO)[C@H](O)[C@@H](O)[C@@H]1O` (stereo partly shown) [cellohexaose], for which the “% inhibition” value in assay [1] ([3H]XXXGol acceptor) is recorded as “We found that cello‐oligosaccharides (C2–C6) are efficient inhibitors of Equisetum HTG”.

As to `OC[C@H]1O[C@@H](O[C@H]2[C@H](O)[C@@H](O)[C@H](O[C@H]3[C@H](O)[C@@H](O)[C@H](O[C@H]4[C@H](O)[C@@H](O)C(O)O[C@@H]4CO)O[C@@H]3CO)O[C@@H]2CO)[C@H](O)[C@@H](O)[C@@H]1O` (stereo partly shown) [cellotetraose], the “% inhibition” value in assay [1] ([3H]XXXGol acceptor) is “We found that cello‐oligosaccharides (C2–C6) are efficient inhibitors of Equisetum HTG”.

As to `OC[C@H]1O[C@@H](O[C@H]2[C@H](O)[C@@H](O)[C@H](O[C@H]3[C@H](O)[C@@H](O)C(O)O[C@@H]3CO)O[C@@H]2CO)[C@H](O)[C@@H](O)[C@@H]1O` (stereo partly shown) [cellotriose], the “% inhibition” value in assay [1] ([3H]XXXGol acceptor) was “We found that cello‐oligosaccharides (C2–C6) are efficient inhibitors of Equisetum HTG”.

With `OC[C@H]1O[C@@H](O[C@H]2[C@H](O)[C@@H](O)[C@H](O[C@H]3[C@H](O)[C@@H](O)[C@H](O[C@H]4[C@H](O)[C@@H](O)[C@H](O[C@H]5[C@H](O)[C@@H](O)C(O)O[C@@H]5CO)O[C@@H]4CO)O[C@@H]3CO)O[C@@H]2CO)[C@H](O)[C@@H](O)[C@@H]1O` (stereo partly shown) [cellopentaose], the “% inhibition” value in assay [1] ([3H]XXXGol acceptor) is listed as “We found that cello‐oligosaccharides (C2–C6) are efficient inhibitors of Equisetum HTG”.

A word on the inhibition: it is the drop in the measured response relative to a control, in per cent. In the case of `CCCCN1C[C@H](O)[C@@H](O)[C@H](O)[C@H]1CO` [N-butyldeoxynojirimycin], the inhibition at 300 µM in assay [2] was approximately 50%.

Turning to `OC[C@@H](O)[C@@H](O[C@@H]1O[C@H](CO[C@H]2OC[C@@H](O)[C@H](O)[C@H]2O)[C@@H](O[C@@H]2O[C@H](CO[C@H]3OC[C@@H](O)[C@H](O)[C@H]3O)[C@@H](O[C@@H]3O[C@H](CO[C@H]4OC[C@@H](O)[C@H](O)[C@H]4O)[C@@H](O)[C@H](O)[C@H]3O)[C@H](O)[C@H]2O)[C@H](O)[C@H]1O)[C@H](O)[C@@H](O)CO` [[3H]XXXGol], in assay [3], the “radiochemical transglucosylase assay (XET, MXE, CXE)” value was “albeit at lower rates than onto the oligosaccharide [^3H]XXXGol”.
